Laboratory results published in PubChem BioAssay AID1259411 (Chemical Carcinogenesis Research Information System (CCRIS), 2018).
Activity calls are given as the source filed them. No rule for the calls is given here.

Test system: rodent carcinogenicity bioassays, tumor incidence
Assay: CCRIS carcinogenicity studies
Outline: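 NCI-built, expert-reviewed records of carcinogenicity and related test outcomes (mutagenicity, tumor promotion/inhibition) compiled from published and report sources, historical span 1985-2011, not updated.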

OCc1ccco1
carcinogen call (Species: MOUSE, Strain/Sex: B6C3F1/FEMALE, Route: INHALATION, Dose: 0, 2, 8, 32 PPM 6 HR/D 5 D/WK FOR 105 WK (STUDY DURATION: 105 WK), Dose: 0, 2, 8, 32 PPM 6 HR/D 5 D/WK FOR 105 WK (STUDY DURATION: 105 WK)): inactive; negative | carcinogen call (Species: MOUSE, Strain/Sex: B6C3F1/MALE, Route: INHALATION, Dose: 0, 2, 8, 32 PPM 6 HR/D 5 D/WK FOR 105 WK (STUDY DURATION: 105 WK), Dose: 0, 2, 8, 32 PPM 6 HR/D 5 D/WK FOR 105 WK (STUDY DURATION: 105 WK), Tumor Site: Type of Lesion: KIDNEY: RENAL TUBULE ADENOMA, CARCINOMA): active; positive | carcinogen call (Species: RAT, Strain/Sex: F344/FEMALE, Route: INHALATION, Dose: 0, 2, 8, 32 PPM 6 HR/D 5 D/WK FOR 105 WK (STUDY DURATION: 105 WK), Dose: 0, 2, 8, 32 PPM 6 HR/D 5 D/WK FOR 105 WK (STUDY DURATION: 105 WK), Tumor Site: Type of Lesion: NOSE: LATERAL WALL, ADENOMA, RESPIRATORY EPITHELIUM ADENOMA, KIDNEY (RENAL TUBULE): ADENOMA, CARCINOMA, ADENOMA OR CARCI): equivocal | carcinogen call (Species: RAT, Strain/Sex: F344/MALE, Route: INHALATION, Dose: 0, 2, 8, 32 PPM 6 HR/D 5 D/WK FOR 105 WK (STUDY DURATION: 105 WK), Dose: 0, 2, 8, 32 PPM 6 HR/D 5 D/WK FOR 105 WK (STUDY DURATION: 105 WK), Tumor Site: Type of Lesion: NOSE: ADENOMA, CARCINOMA, OR SQUAMOUS CELL CARCINOMA): active; positive

O=c1ccc2ccccc2o1
carcinogen call (Species: MOUSE, Strain/Sex: B6C3F1/FEMALE, Route: GAVAGE, Dose: 0, 50, 100, 200 MG/KG BW IN CORN OIL 1/D 5 D/WK FOR 103 WK (STUDY DURATION: 103 WK), Dose: 0, 50, 100, 200 MG/KG BW IN CORN OIL 1/D 5 D/WK FOR 103 WK (STUDY DURATION: 103 WK), Tumor Site: Type of Lesion: LIVER: HEPATOCELLULAR ADENOMA, HEPATOCELLULAR ADENOMA OR CARCINOMA, LUNG: ALVEOLAR/BRONCHIOLAR ADENOMA, ALVEOLAR/BRONCHI): active; positive | carcinogen call (Species: MOUSE, Strain/Sex: B6C3F1/MALE, Route: GAVAGE, Dose: 0, 50, 100, 200 MG/KG BW IN CORN OIL 1/D 5 D/WK FOR 103 WK (STUDY DURATION: 103 WK), Dose: 0, 50, 100, 200 MG/KG BW IN CORN OIL 1/D 5 D/WK FOR 103 WK (STUDY DURATION: 103 WK), Tumor Site: Type of Lesion: LUNG: ALVEOLAR/BRONCHIOLAR ADENOMA, ALVEOLAR/BRONCHIOLAR ADENOMA OR CARCINOMA): active; positive | carcinogen call (Species: MOUSE, Strain/Sex: CD-1/FEMALE, Route: ORAL, Dose: 0, 300, 1000, 3000 PPM IN DIET FOR THE DURATION OF STUDY (STUDY DURATION: 109 WK), Dose: 0, 300, 1000, 3000 PPM IN DIET FOR THE DURATION OF STUDY (STUDY DURATION: 109 WK)): inactive; negative | carcinogen call (Species: MOUSE, Strain/Sex: CD-1/MALE, Route: ORAL, Dose: 0, 300, 1000, 3000 PPM IN DIET FOR THE DURATION OF STUDY (STUDY DURATION: 101 WK), Dose: 0, 300, 1000, 3000 PPM IN DIET FOR THE DURATION OF STUDY (STUDY DURATION: 101 WK)): inactive; negative | carcinogen call (Species: RAT, Route: ORAL, Tumor Site: Type of Lesion: BILE DUCT): active; positive | carcinogen call (Species: RAT, Strain/Sex: F344/FEMALE, Route: GAVAGE, Dose: 0, 25, 50, 100 MG/KG BW IN CORN OIL 1/D 5 D/WK FOR 103 WK (STUDY DURATION: 103 WK), Dose: 0, 25, 50, 100 MG/KG BW IN CORN OIL 1/D 5 D/WK FOR 103 WK (STUDY DURATION: 103 WK), Tumor Site: Type of Lesion: KIDNEY (RENAL TUBULE): ADENOMA): equivocal | carcinogen call (Species: RAT, Strain/Sex: F344/MALE, Route: GAVAGE, Dose: 0, 25, 50, 100 MG/KG BW IN CORN OIL 1/D 5 D/WK FOR 103 WK (STUDY DURATION: 103 WK), Dose: 0, 25, 50, 100 MG/KG BW IN CORN OIL 1/D 5 D/WK FOR 103 WK (STUDY DURATION: 103 WK), Tumor Site: Type of Lesion: KIDNEY (RENAL TUBULE): ADENOMA): active; positive | carcinogen call (Species: RAT, Strain/Sex: SPRAGUE-DAWLEY/FEMALE, Route: ORAL, Dose: 0, 333, 1000, 2000 PPM IN DIET FOR DURATION OF STUDY ADMINISTERED TO RATS EXPOSED TO THE SAME DOSES DURING GESTATION AND, Dose: 0, 333, 1000, 2000 PPM IN DIET FOR DURATION OF STUDY ADMINISTERED TO RATS EXPOSED TO THE SAME DOSES DURING GESTATION AND, Tumor Site: Type of Lesion: LIVER: CHOLANGIOCARCINOMA, PARENCHYMAL TUMORS): active; positive | carcinogen call (Species: RAT, Strain/Sex: SPRAGUE-DAWLEY/MALE, Route: ORAL, Dose: 0, 333, 1000, 2000 PPM IN DIET FOR DURATION OF STUDY ADMINISTERED TO RATS EXPOSED TO THE SAME DOSES DURING GESTATION AND, Dose: 0, 333, 1000, 2000 PPM IN DIET FOR DURATION OF STUDY ADMINISTERED TO RATS EXPOSED TO THE SAME DOSES DURING GESTATION AND, Tumor Site: Type of Lesion: LIVER: CHOLANGIOCARCINOMA, PARENCHYMAL TUMORS): active; positive

[N-]=[N+]=[N-]
carcinogen call (Species: RAT, Strain/Sex: F344/FEMALE, Route: GAVAGE, Dose: 0, 5, 10 MG/KG IN DISTILLED WATER 5 D/WK FOR 103 WK (STUDY DURATION: 2 YR), Dose: 0, 5, 10 MG/KG IN DISTILLED WATER 5 D/WK FOR 103 WK (STUDY DURATION: 2 YR)): inactive; negative | carcinogen call (Species: RAT, Strain/Sex: F344/MALE, Route: GAVAGE, Dose: 0, 5, 10 MG/KG IN DISTILLED WATER 5 D/WK FOR 103 WK (STUDY DURATION: 2 YR), Dose: 0, 5, 10 MG/KG IN DISTILLED WATER 5 D/WK FOR 103 WK (STUDY DURATION: 2 YR)): inactive; negative

Nc1ccc2cc3ccc(N)cc3nc2c1
carcinogen call (Species: MOUSE, Strain/Sex: B6C3F1/FEMALE, Route: ORAL, Dose: 0, 200, 400 PPM IN DIET FOR 104 WK (STUDY DURATION: 104 WK), Dose: 0, 200, 400 PPM IN DIET FOR 104 WK (STUDY DURATION: 104 WK), Tumor Site: Type of Lesion: LIVER: HEPATOCELLULAR CARCINOMA): equivocal | carcinogen call (Species: MOUSE, Strain/Sex: B6C3F1/MALE, Route: ORAL, Dose: 0, 200, 400 PPM IN DIET FOR 104 WK (STUDY DURATION: 104 WK), Dose: 0, 200, 400 PPM IN DIET FOR 104 WK (STUDY DURATION: 104 WK), Tumor Site: Type of Lesion: LIVER: HEPATOCELLULAR CARCINOMA): equivocal | carcinogen call (Species: RAT, Strain/Sex: F344/FEMALE, Route: ORAL, Dose: 0, 300, 600 PPM IN DIET, Dose: 0, 300, 600 PPM IN DIET): inactive; negative | carcinogen call (Species: RAT, Strain/Sex: F344/MALE, Route: ORAL, Dose: 0, 300, 600 PPM IN DIET FOR 109 WK (STUDY DURATION: 109 WK), Dose: 0, 300, 600 PPM IN DIET FOR 109 WK (STUDY DURATION: 109 WK), Tumor Site: Type of Lesion: INTESTINE: LEIOMYOSARCOMA OR ADENOCARCINOMA OR SARCOMA): equivocal

C[C@]12CC[C@H]3[C@@H](CCC4=CC(=O)CC[C@@]43C)[C@@H]1CC[C@@H]2O
carcinogen call (Species: MOUSE, Route: SUBCUTANEOUS IMPLANT, Tumor Site: Type of Lesion: MAMMARY GLAND, VAGINA): active; positive | carcinogen call (Species: MOUSE, Route: SUBCUTANEOUS, Tumor Site: Type of Lesion: GENITAL TRACT): active; positive

N#Cc1c(Cl)cccc1Cl
carcinogen call (Species: MICE, Strain/Sex: SWISS/MALE, Route: INTRAPERITONEAL, Dose: 2 PPM (0.0005MG) 1/3 D FOR 13 TIMES (STUDY DURATION: 375 D), Tumor Site: Type of Lesion: LYMPHATIC SYSTEM: HISTIOCYTIC LYMPHOMA, PLASMA CELL LYMPHOMA, LIVER: HEPATOCELLULAR CARCINOMA): active; positive | carcinogen call (Species: MICE, Strain/Sex: SWISS/MALE, Route: SUBCUTANEOUS, Dose: 2 PPM (0.0005MG) 1/3 D FOR 13 TIMES (STUDY DURATION: 375 D), Tumor Site: Type of Lesion: LYMPHATIC SYSTEM: PLASMA CELL LYMPHOMA, LUNG: CARCINOMA, BODY CAVITY: MESOTHELIOMA, LIVER: HEPATOCELLULAR CARCINOMA, Tumor Site: Type of Lesion: LYMPHATIC SYSTEM: PLASMA CELL LYMPHOMA, LUNG: CARCINOMA, BODY CAVITY: MESOTHELIOMA, LIVER: HEPATOCELLULAR CARCINOMA): active; positive
